Data reported in paper PMC9120017, “Inhibition mechanism of the chloride channel TMEM16A by the pore blocker 1PBC” (Nature Communications, 2022).
Like-named read-outs stand apart in the source and are kept apart here.

Target: T1, mouse TMEM16A mutant P595A (Mus musculus, UniProt Q8BHY3, P595A)
T1 construct: expressed in transfected cells; host or cells: HEK293T
T1 sequence (Q8BHY3 1-960 P595A): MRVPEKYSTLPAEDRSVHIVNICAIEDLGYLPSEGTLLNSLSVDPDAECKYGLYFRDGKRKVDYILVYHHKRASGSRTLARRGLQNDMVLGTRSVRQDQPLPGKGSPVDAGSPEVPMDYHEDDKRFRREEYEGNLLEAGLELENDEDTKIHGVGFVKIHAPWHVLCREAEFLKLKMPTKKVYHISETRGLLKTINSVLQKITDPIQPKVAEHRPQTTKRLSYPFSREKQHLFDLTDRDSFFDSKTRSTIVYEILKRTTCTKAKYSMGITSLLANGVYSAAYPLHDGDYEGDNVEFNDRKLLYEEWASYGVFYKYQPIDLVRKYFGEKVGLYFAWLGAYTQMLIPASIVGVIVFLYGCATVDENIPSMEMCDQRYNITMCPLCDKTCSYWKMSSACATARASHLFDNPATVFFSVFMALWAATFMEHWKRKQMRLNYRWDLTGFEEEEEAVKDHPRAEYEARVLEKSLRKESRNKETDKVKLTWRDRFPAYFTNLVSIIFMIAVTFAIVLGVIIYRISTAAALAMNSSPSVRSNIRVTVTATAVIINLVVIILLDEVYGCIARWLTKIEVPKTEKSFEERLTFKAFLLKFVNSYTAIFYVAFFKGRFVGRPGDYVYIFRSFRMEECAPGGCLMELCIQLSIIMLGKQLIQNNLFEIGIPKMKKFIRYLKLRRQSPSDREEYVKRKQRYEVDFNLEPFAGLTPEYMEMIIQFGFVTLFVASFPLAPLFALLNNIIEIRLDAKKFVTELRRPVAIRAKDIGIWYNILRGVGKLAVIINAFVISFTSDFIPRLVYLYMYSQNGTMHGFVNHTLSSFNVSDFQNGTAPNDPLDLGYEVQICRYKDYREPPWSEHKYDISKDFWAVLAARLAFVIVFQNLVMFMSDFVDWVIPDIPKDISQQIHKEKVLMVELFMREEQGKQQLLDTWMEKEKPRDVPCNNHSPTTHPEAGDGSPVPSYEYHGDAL
Assay: Inside-out patch recording of 1PBC block, mutant P595A
Assay type: cell-based
Details: for remaining activity at 1 µM: 1PBC conc 1; for remaining activity at 1 µM / remaining activity at 3 µM / remaining activity at 10 µM / remaining activity at 30 µM: read-out: relative current in 1PBC (avr); for remaining activity at 3 µM: 1PBC conc 3; for remaining activity at 10 µM: 1PBC conc 10; for remaining activity at 30 µM: 1PBC conc 30
Method: HEK293T cells (ATCC CRL-1573) were maintained in Dulbecco’s modified Eagle’s medium (DMEM; Sigma-Aldrich) supplemented with 10 U ml^−1 penicillin, 0.1 mg ml^−1 streptomycin (Sigma-Aldrich), 2 mM L-glutamine (Sigma-Aldrich), and 10% FBS (Sigma-Aldrich) in a humidified atmosphere containing 5% CO2 at 37 °C. HEK293S GnTI^− cells (ATCC CRL-3022) were maintained in HyClone HyCell TransFx-H medium (GE Healthcare) supplemented with 10 U ml^−1 penicillin, 0.1 mg ml^−1 streptomycin, 4 mM L-glutamine, 0.15% poloxamer 188 (Sigma-Aldrich), and 1% FBS in an atmosphere containing 5% CO2 at 185 rpm at 37 °C. The ac splice variant of mouse TMEM16A (UniProt ID: Q8BHY3), mouse TMEM16B (UniProt ID: Q8CFW1), or mouse TMEM16F (UniProt ID: Q6P9J9) bearing a 3C cleavage site, a Venus YFP, a Myc tag, and a Streptavidin-binding peptide (SBP) downstream of the open reading frame in a modified pcDNA3.1 vector (Invitrogen) were used as described previously[21],[31]. Mutations were introduced using a modified QuikChange method[58] and were verified by sequencing.
HEK293T cells were transfected with 3–4 μg DNA per 6 cm Petri dish using the calcium phosphate co-precipitation method and were used within 24–96 h after transfection. Recordings were performed on inside-out patches excised from HEK293T cells expressing the construct of interest. Patch pipettes were pulled from borosilicate glass capillaries (O.D. 1.5 mm, I.D. 0.86 mm, Sutter Instrument) and were fire-polished with a microforge (Narishige) before use. Pipette resistance was typically 3–8 MΩ when filled with the recording solutions detailed below. Seal resistance was typically 4 GΩ or higher. Voltage-clamp recordings were made using Axopatch 200B, Digidata 1550, and Clampex 10.7 (Molecular Devices). Analog signals were filtered with the in-built 4-pole Bessel filter at 10 kHz and were digitized at 20 kHz. Solution exchange was achieved using a gravity-fed system through a theta glass pipette mounted on an ultra-fast piezo-driven stepper (Siskiyou). […] All recordings were performed at 20 °C.
A symmetrical ionic condition was used throughout. Stock solution with Ca^2+-EGTA contained 150 mM NaCl, 5.99 mM Ca(OH)2, 5 mM EGTA, and 10 mM HEPES at pH 7.40. Stock solution with EGTA contained 150 mM NaCl, 5 mM EGTA, and 10 mM HEPES at pH 7.40. Free Ca^2+ concentrations were adjusted by mixing the stock solutions at the required ratios calculated using the WEBMAXC program (http://web.stanford.edu/~cpatton/webmaxcS.htm). Patch pipettes were filled with the stock solution with Ca^2+-EGTA, which has a free Ca^2+ concentration of 1 mM. 1PBC (ChemBridge) stock was reconstituted in anhydrous DMSO (Sigma-Aldrich) at 100 mM and stored at −20 °C. Working solutions with 1PBC were prepared by serial dilution. Unless otherwise stated, experiments were performed at a saturating Ca^2+ concentration as shown in Supplementary Table 1 and the primary data were corrected for current rundown as described previously[21],[25].
Concentration-response relations, obtained from the ratio of the I-V plots before and after the application of the blocker, were fitted to the Hill equation,1 I/Imax=1/1+IC50/[blocker]^h where I/Imax is the normalized current responses, IC50 defines the concentration at which inhibition is at its half-maximum, and h is the Hill coefficient.

`N#Cc1c(C(F)(F)F)cc(O)n2c1nc1ccccc12` [1PBC] was tested, and the IC50 (0 mV, 2 µM Ca2+) was 3.1 µM, the remaining activity at 1 µM (0 mV) was 75.3% and the remaining activity at 3 µM (0 mV) was 48.8%. The remaining activity at 10 µM (0 mV) was 25.9%, the remaining activity at 30 µM (0 mV) was 11.1% and the IC50 (20 mV, 2 µM Ca2+) was 2.46 µM. The remaining activity at 1 µM (20 mV) was 70.9%, the remaining activity at 3 µM (20 mV) was 43% and the remaining activity at 10 µM (20 mV) was 22.6%. For the same compound, the remaining activity at 30 µM (20 mV) was 8.98%, the IC50 (40 mV, 2 µM Ca2+) was 2 µM and the remaining activity at 1 µM (40 mV) was 66.5%. The remaining activity at 3 µM (40 mV) was 38.4%, the remaining activity at 10 µM (40 mV) was 19% and the remaining activity at 30 µM (40 mV) was 7.73%. The IC50 (60 mV, 2 µM Ca2+) was 1.75 µM, the remaining activity at 1 µM (60 mV) was 64.4% and the remaining activity at 3 µM (60 mV) was 34.6%. It also gave a remaining activity at 10 µM (60 mV) of 16.9%, a remaining activity at 30 µM (60 mV) of 7.56% and an IC50 (80 mV, 2 µM Ca2+) of 1.57 µM. It also gave a remaining activity at 1 µM (80 mV) of 61.3%, a remaining activity at 3 µM (80 mV) of 32.5% and a remaining activity at 10 µM (80 mV) of 15.9%. It also gave a remaining activity at 30 µM (80 mV) of 7.06%, an IC50 (100 mV, 2 µM Ca2+) of 1.48 µM and a remaining activity at 1 µM (100 mV) of 60.2%. The remaining activity at 3 µM (100 mV) was 31%, the remaining activity at 10 µM (100 mV) was 15.3% and the remaining activity at 30 µM (100 mV) was 6.31%. For the same compound, the IC50 (120 mV, 2 µM Ca2+) was 1.63 µM, the remaining activity at 1 µM (120 mV) was 64.3% and the remaining activity at 3 µM (120 mV) was 31.5%. It also gave a remaining activity at 10 µM (120 mV) of 15.7%, a remaining activity at 30 µM (120 mV) of 6.66% and an IC50 (140 mV, 2 µM Ca2+) of 1.91 µM. For the same compound, the remaining activity at 1 µM (140 mV) was 70.3%, the remaining activity at 3 µM (140 mV) was 33.2% and the remaining activity at 10 µM (140 mV) was 17.5%. It also gave a remaining activity at 30 µM (140 mV) of 7.54%, an IC50 (-20 mV, 2 µM Ca2+) of 3.88 µM and a remaining activity at 1 µM (-20 mV) of 79.6%. It also gave a remaining activity at 3 µM (-20 mV) of 54.6%, a remaining activity at 10 µM (-20 mV) of 29.2% and a remaining activity at 30 µM (-20 mV) of 13.3%. The IC50 (-40 mV, 2 µM Ca2+) was 4.91 µM, the remaining activity at 1 µM (-40 mV) was 84% and the remaining activity at 3 µM (-40 mV) was 59.7%. It also gave a remaining activity at 10 µM (-40 mV) of 33.9%, a remaining activity at 30 µM (-40 mV) of 15.9% and an IC50 (-60 mV, 2 µM Ca2+) of 5.83 µM. For the same compound, the remaining activity at 1 µM (-60 mV) was 87.1%, the remaining activity at 3 µM (-60 mV) was 62.7% and the remaining activity at 10 µM (-60 mV) was 37.7%. It also gave a remaining activity at 30 µM (-60 mV) of 18.7%, an IC50 (-80 mV, 2 µM Ca2+) of 7 µM and a remaining activity at 1 µM (-80 mV) of 88.8%. For the same compound, the remaining activity at 3 µM (-80 mV) was 67.8%, the remaining activity at 10 µM (-80 mV) was 41.3% and the remaining activity at 30 µM (-80 mV) was 21%. For the same compound, the IC50 (-100 mV, 2 µM Ca2+) was 8.19 µM, the remaining activity at 1 µM (-100 mV) was 90.4% and the remaining activity at 3 µM (-100 mV) was 70.3%. The remaining activity at 10 µM (-100 mV) was 45%, the remaining activity at 30 µM (-100 mV) was 24% and the IC50 (-120 mV, 2 µM Ca2+) was 9.33 µM. The remaining activity at 1 µM (-120 mV) was 92.2%, the remaining activity at 3 µM (-120 mV) was 72.9% and the remaining activity at 10 µM (-120 mV) was 47.9%. It also gave a remaining activity at 30 µM (-120 mV) of 26.1%, an IC50 (-140 mV, 2 µM Ca2+) of 10.5 µM and a remaining activity at 1 µM (-140 mV) of 93.8%. For the same compound, the remaining activity at 3 µM (-140 mV) was 75.4%, the remaining activity at 10 µM (-140 mV) was 50.3% and the remaining activity at 30 µM (-140 mV) was 28.4%. For the same compound, the IC50 (P595A, V 0 mV) was 3.1 µM, the IC50 (P595A, V 20 mV) was 2.46 µM and the IC50 (P595A, V 40 mV) was 2 µM. It also gave an IC50 (P595A, V 60 mV) of 1.75 µM, an IC50 (P595A, V 80 mV) of 1.57 µM and an IC50 (P595A, V 100 mV) of 1.48 µM. For the same compound, the IC50 (P595A, V 120 mV) was 1.63 µM, the IC50 (P595A, V 140 mV) was 1.91 µM and the IC50 (P595A, V -20 mV) was 3.88 µM. For the same compound, the IC50 (P595A, V -40 mV) was 4.91 µM, the IC50 (P595A, V -60 mV) was 5.83 µM and the IC50 (P595A, V -80 mV) was 7 µM. It also gave an IC50 (P595A, V -100 mV) of 8.19 µM, an IC50 (P595A, V -120 mV) of 9.33 µM and an IC50 (P595A, V -140 mV) of 10.5 µM.
